Data published in US7361659B2, “Pyrrazolo-pyrimidine derivatives” (Hoffmann-La Roche Inc., priority 2005, dated 2008).

| Structure (SMILES) | melting point |
| --- | --- |
| Cc1nc(NC(=O)c2cnn3c(C(F)F)cc(-c4ccc(C(F)(F)F)cc4)nc23)sc1S(N)(=O)=O [Example 7, 7-Difluoromethyl-5-(4-trifluoromethyl-phenyl)-pyrazolo[1,5-a]pyrimidine-3-carboxylic acid (4-methyl-5-sulfamoyl-thiazol-2-yl)-amide] | 284 °C |
| Cc1nc(NC(=O)c2cnn3c(C(F)(F)F)cc(-c4ccc(Cl)cc4)nc23)sc1S(N)(=O)=O [Example 19, 5-(4-Chloro-phenyl)-7-trifluoromethyl-pyrazolo[1,5-a]pyrimidine-3-carboxylic acid (4-methyl-5-sulfamoyl-thiazol-2-yl)-amide] | 305 °C |
| CN(C)CCNS(=O)(=O)c1cc(NC(=O)c2cnn3c(C(F)F)cc(-c4ccc(C(F)(F)F)cc4)nc23)c(Cl)s1 [Example 54, 7-Difluoromethyl-5-(4-trifluoromethyl-phenyl)-pyrazolo[1,5-a]pyrimidine-3-carboxylic acid [2-chloro-5-(2-dimethylamino-ethylsulfamoyl)-thiophen-3-yl]-amide] | 162 °C |
| Cc1nc(NC(=O)c2cnn3c(C(F)F)cc(-c4ccc(C(F)(F)F)cc4)nc23)sc1S(=O)(=O)NC(CO)CO [Example 63, 7-Difluoromethyl-5-(4-trifluoromethyl-phenyl)-pyrazolo[1,5-a]pyrimidine-3-carboxylic acid [5-(2-hydroxy-1-hydroxymethyl-ethylsulfamoyl)-4-methyl-thiazol-2-yl]-amide] | 217 °C |
| Cc1sc(S(N)(=O)=O)cc1NC(=O)c1cnn2c(C(F)F)cc(-c3ccc(C(F)(F)F)cc3)nc12 [Example 48, 7-Difluoromethyl-5-(4-trifluoromethyl-phenyl)-pyrazolo[1,5-a]pyrimidine-3-carboxylic acid (2-methyl-5-sulfamoyl-thiophen-3-yl)-amide] | 313 °C |
| CCOc1cc(-c2cc(C(F)(F)F)n3ncc(C(=O)Nc4cc(S(=O)(=O)NCCO)sc4Cl)c3n2)ccc1C(F)(F)F [Example 56, 5-(3-Ethoxy-4-trifluoromethyl-phenyl)-7-trifluoromethyl-pyrazolo[1,5-a]pyrimidine-3-carboxylic acid [2-chloro-5-(2-hydroxy-ethylsulfamoyl)-thiophen-3-yl]-amide] | 250 °C |
| Cc1nc(NC(=O)c2cnn3c(C(F)(F)F)cc(-c4ccc(C(F)(F)F)cc4)nc23)sc1S(=O)(=O)N1CCC(O)C1 (racemic) [Example 76, 7-Trifluoromethyl-5-(4-trifluoromethyl-phenyl)-pyrazolo[1,5-a]pyrimidine-3-carboxylic acid [(RS)-5-(3-hydroxy-pyrrolidine-1-sulfonyl)-4-methyl-thiazol-2-yl]-amide] | 300 °C |
| CC(C)(CO)NS(=O)(=O)c1cc(NC(=O)c2cnn3c(C(F)(F)F)cc(-c4ccc(Cl)cc4)nc23)c(Cl)s1 [Example 12, 5-(4-Chloro-phenyl)-7-trifluoromethyl-pyrazolo[1,5-a]pyrimidine-3-carboxylic acid [2-chloro-5-(2-hydroxy-1,1-dimethyl-ethylsulfamoyl)-thiophen-3-yl]-amide] | 272 °C |
| CN(CCO)S(=O)(=O)c1cc(NC(=O)c2cnn3c(C(F)F)cc(-c4ccc(C(F)(F)F)cc4)nc23)c(Cl)s1 [Example 72, 7-Difluoromethyl-5-(4-trifluoromethyl-phenyl)-pyrazolo[1,5-a]pyrimidine-3-carboxylic acid {2-chloro-5-[(2-hydroxy-ethyl)-methyl-sulfamoyl]-thiophen-3-yl}-amide] | 231 °C |
| O=C(Nc1cc(S(=O)(=O)NCCO)sc1Cl)c1cnn2c(C(F)F)cc(-c3ccc(C(F)(F)F)cc3)nc12 [Example 44, 7-Difluoromethyl-5-(4-trifluoromethyl-phenyl)-pyrazolo[1,5-a]pyrimidine-3-carboxylic acid [2-chloro-5-(2-hydroxy-ethylsulfamoyl)-thiophen-3-yl]-amide] | 209 °C |
| Cc1cc(-c2cc(C(F)(F)F)n3ncc(C(=O)Nc4nc(C)c(S(N)(=O)=O)s4)c3n2)ccc1C(F)(F)F [Example 21, 5-(3-Methyl-4-trifluoromethyl-phenyl)-7-trifluoromethyl-pyrazolo[1,5-a]pyrimidine-3-carboxylic acid (4-methyl-5-sulfamoyl-thiazol-2-yl)-amide] | 309 °C |
| CCOc1cc(-c2cc(C(F)(F)F)n3ncc(C(=O)Nc4cc(S(=O)(=O)NC(C)(C)CO)sc4Cl)c3n2)ccc1C(F)(F)F [Example 15, 5-(3-Ethoxy-4-trifluoromethyl-phenyl)-7-trifluoromethyl-pyrazolo[1,5-a]pyrimidine-3-carboxylic acid [2-chloro-5-(2-hydroxy-1,1-dimethyl-ethylsulfamoyl)-thiophen-3-yl]-amide] | 234 °C |
| Cc1nc(NC(=O)c2cnn3c(C(F)(F)F)cc(-c4ccc(C(F)(F)F)cc4)nc23)sc1S(=O)(=O)NC(C)(CO)CO [Example 42, 7-Trifluoromethyl-5-(4-trifluoromethyl-phenyl)-pyrazolo[1,5-a]pyrimidine-3-carboxylic acid [5-(2-hydroxy-1-hydroxymethyl-1-methyl-ethylsulfamoyl)-4-methyl-thiazol-2-yl]-amide] | 250 °C |
| Cc1nc(NC(=O)c2cnn3c(C(F)(F)F)cc(-c4ccc(C(F)(F)F)cc4)nc23)sc1S(=O)(=O)NCCN(C)C [Example 58, 7-Trifluoromethyl-5-(4-trifluoromethyl-phenyl)-pyrazolo[1,5-a]pyrimidine-3-carboxylic acid [5-(2-dimethylamino-ethylsulfamoyl)-4-methyl-thiazol-2-yl]-amide] | 235 °C |
| NCCNS(=O)(=O)c1cc(NC(=O)c2cnn3c(C(F)(F)F)cc(-c4ccc(C(F)(F)F)cc4)nc23)c(Cl)s1 [Example 78, 7-Trifluoromethyl-5-(4-trifluoromethyl-phenyl)-pyrazolo[1,5-a]pyrimidine-3-carboxylic acid [5-(2-amino-ethylsulfamoyl)-2-chloro-thiophen-3-yl]-amide] | 195 °C |
| Cc1nc(NC(=O)c2cnn3c(C(F)(F)F)cc(-c4ccc(Cl)c(Cl)c4)nc23)sc1S(N)(=O)=O [Example 26, 5-(3,4-Dichloro-phenyl)-7-trifluoromethyl-pyrazolo[1,5-a]pyrimidine-3-carboxylic acid (4-methyl-5-sulfamoyl-thiazol-2-yl)-amide] | 307 °C |
| Cc1nc(NC(=O)c2cnn3c(C(F)(F)F)cc(-c4ccc(C(F)(F)F)c(OCC(F)(F)F)c4)nc23)sc1S(N)(=O)=O [Example 27, 5-[3-(2,2,2-Trifluoro-ethoxy)-4-trifluoromethyl-phenyl]-7-trifluoromethyl-pyrazolo[1,5-a]pyrimidine-3-carboxylic acid (4-methyl-5-sulfamoyl-thiazol-2-yl)-amide] | 264 °C |
| Cc1nc(NC(=O)c2cnn3c(C(F)(F)F)cc(-c4ccc(C(F)(F)F)cc4)nc23)sc1S(=O)(=O)NC(C)(C)CO [Example 13, 7-Trifluoromethyl-5-(4-trifluoromethyl-phenyl)-pyrazolo[1,5-a]pyrimidine-3-carboxylic acid [5-(2-hydroxy-1,1-dimethyl-ethylsulfamoyl)-4-methyl-thiazol-2-yl]-amide] | 257 °C |
| CC(CO)(CO)NS(=O)(=O)c1cc(NC(=O)c2cnn3c(C(F)(F)F)cc(-c4ccc(C(F)(F)F)cc4)nc23)c(Cl)s1 [Example 38, 7-Trifluoromethyl-5-(4-trifluoromethyl-phenyl)-pyrazolo[1,5-a]pyrimidine-3-carboxylic acid [2-chloro-5-(2-hydroxy-1-hydroxymethyl-1-methyl-ethylsulfamoyl)-thiophen-3-yl]-amide] | 201 °C |
| Cc1cc(-c2cc(C(F)(F)F)n3ncc(C(=O)Nc4cc(S(=O)(=O)NC(C)(C)CO)sc4Cl)c3n2)ccc1C(F)(F)F [Example 16, 5-(3-Methyl-4-trifluoromethyl-phenyl)-7-trifluoromethyl-pyrazolo[1,5-a]pyrimidine-3-carboxylic acid [2-chloro-5-(2-hydroxy-1,1-dimethyl-ethylsulfamoyl)-thiophen-3-yl]-amide] | 207 °C |
| Cc1nc(NC(=O)c2cnn3c(C(F)F)cc(-c4ccc(C(F)(F)F)cc4)nc23)sc1S(=O)(=O)N1CCN(C)CC1 [Example 68, 7-Difluoromethyl-5-(4-trifluoromethyl-phenyl)-pyrazolo[1,5-a]pyrimidine-3-carboxylic acid [4-methyl-5-(4-methyl-piperazine-1-sulfonyl)-thiazol-2-yl]-amide] | 269 °C |
| Cc1sc(S(=O)(=O)NC(C)(C)CO)cc1NC(=O)c1cnn2c(C(F)(F)F)cc(-c3ccc(C(F)(F)F)cc3)nc12 [Example 49, 7-Trifluoromethyl-5-(4-trifluoromethyl-phenyl)-pyrazolo[1,5-a]pyrimidine-3-carboxylic acid [5-(2-hydroxy-1,1-dimethyl-ethylsulfamoyl)-2-methyl-thiophen-3-yl]-amide] | 225 °C |
| Cc1nc(NC(=O)c2cnn3c(C(F)(F)F)cc(-c4ccc(C(F)(F)F)cc4)nc23)sc1S(=O)(=O)N(C)CCO [Example 71, 7-Trifluoromethyl-5-(4-trifluoromethyl-phenyl)-pyrazolo[1,5-a]pyrimidine-3-carboxylic acid {5-[(2-hydroxy-ethyl)-methyl-sulfamoyl]-4-methyl-thiazol-2-yl}-amide] | 266 °C |
| Cc1cc(-c2cc(C(F)F)n3ncc(C(=O)Nc4nc(C)c(S(N)(=O)=O)s4)c3n2)ccc1C(F)(F)F [Example 33, 7-Difluoromethyl-5-(3-methyl-4-trifluoromethyl-phenyl)-pyrazolo[1,5-a]pyrimidine-3-carboxylic acid (4-methyl-5-sulfamoyl-thiazol-2-yl)-amide] | 307 °C |
| NS(=O)(=O)c1cnc(NC(=O)c2cnn3c(C(F)(F)F)cc(-c4ccc(C(F)(F)F)cc4)nc23)s1 [Example 51, 7-Trifluoromethyl-5-(4-trifluoromethyl-phenyl)-pyrazolo[1,5-a]pyrimidine-3-carboxylic acid (5-sulfamoyl-thiazol-2-yl)-amide] | 309 °C |
